According to BindingDB's records for doi:10.1021/acs.jmedchem.2c01601 (Sapienza University of Rome, 2023):

How the values were obtained:
[1] = target: METTL3/METTL14 complex (Homo sapiens); test: Competive inhibition of full length human METTL3/METTL14 expressed in Sf9 cells using single strand RNA 5'-AAGAACCGGACUAAGCU-3' and SAM as substrate incubated for 40 mins by HTRF assay
[2] = target: N6-adenosine-methyltransferase catalytic/non-catalytic subunit (Homo sapiens, UniProt Q9HCE5+Q86U44); test: Inhibition of full-length His-tagged METTL3/full length FLAG-tagged METTL14 (unknown origin) expressed in baculovirus expression system using synthetic RNA 5'P-uacacucgaucuggacuaaagcugcuc-3' and SAM as substrate preincubated for 10 mins followed by substrate addition and measured after 60 mins by RF/MS analysis
Sequence of N6-adenosine-methyltransferase catalytic/non-catalytic subunit (Q9HCE5 whole entry): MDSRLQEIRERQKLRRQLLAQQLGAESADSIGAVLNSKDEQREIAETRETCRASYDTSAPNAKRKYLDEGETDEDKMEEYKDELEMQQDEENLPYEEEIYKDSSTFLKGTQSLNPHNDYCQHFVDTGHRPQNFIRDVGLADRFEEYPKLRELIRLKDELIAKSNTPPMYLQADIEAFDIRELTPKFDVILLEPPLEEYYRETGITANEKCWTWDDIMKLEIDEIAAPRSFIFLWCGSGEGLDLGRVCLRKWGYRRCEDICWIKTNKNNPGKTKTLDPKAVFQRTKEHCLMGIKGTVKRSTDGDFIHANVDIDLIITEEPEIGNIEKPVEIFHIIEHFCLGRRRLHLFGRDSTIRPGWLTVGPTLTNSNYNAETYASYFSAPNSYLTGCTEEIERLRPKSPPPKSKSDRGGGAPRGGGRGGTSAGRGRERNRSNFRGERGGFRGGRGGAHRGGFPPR
Sequence of N6-adenosine-methyltransferase catalytic/non-catalytic subunit (Q86U44 whole entry): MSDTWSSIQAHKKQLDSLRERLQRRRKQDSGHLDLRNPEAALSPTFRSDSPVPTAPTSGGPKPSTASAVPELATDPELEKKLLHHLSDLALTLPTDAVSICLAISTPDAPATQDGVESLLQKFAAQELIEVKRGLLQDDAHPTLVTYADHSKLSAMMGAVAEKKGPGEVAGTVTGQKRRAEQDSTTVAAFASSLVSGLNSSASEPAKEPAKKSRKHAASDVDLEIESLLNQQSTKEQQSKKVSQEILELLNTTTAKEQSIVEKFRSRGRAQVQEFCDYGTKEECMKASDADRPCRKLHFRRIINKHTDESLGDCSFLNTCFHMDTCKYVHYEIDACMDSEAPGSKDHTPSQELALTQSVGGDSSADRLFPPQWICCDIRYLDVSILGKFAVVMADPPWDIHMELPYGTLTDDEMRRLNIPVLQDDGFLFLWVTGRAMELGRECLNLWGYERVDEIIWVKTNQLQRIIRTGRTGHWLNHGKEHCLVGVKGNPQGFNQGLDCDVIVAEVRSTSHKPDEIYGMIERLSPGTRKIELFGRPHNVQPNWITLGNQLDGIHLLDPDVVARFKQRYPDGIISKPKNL

[3] = target: METTL3/METTL14 (Homo sapiens); test: Inhibition of full-length His-tagged METTL3/full length FLAG-tagged METTL14 (unknown origin) expressed in baculovirus expression system using synthetic RNA 5'P-uacacucgaucuggacuaaagcugcuc-3' and SAM as substrate preincubated for 10 mins followed by substrate addition and measured after 60 mins by RF/MS analysis
[4] = target: METTL3/METTL14 complex; test: Inhibition of METTL3/METTL14 (unknown origin)

Row | Compound | IC50 [2] [nM] | IC50 [3] [nM] | also measured
1 | CN1CCC(NC(=O)[C@H]2O[C@@H](n3cnc4c(N)ncnc43)[C@H](O)[C@@H]2O)CC1 |  |  | IC50 [1]: 65000 nM
2 | CNC1CCC(O)(Cn2cnc3c(N)ncnc32)C(O)C1 (stereo not drawn) |  |  | IC50 [1]: 98000 nM
3 | CC1(C)CCN(Cc2ccc3nc(Cn4cc(-c5cc(Br)cc6[nH]ncc56)nn4)cn3c2)CC1 | 7.9 |  | 
4 | COc1cc(-c2cn(Cc3cn4cc(CNCC5(OC)CCC5)ccc4n3)nn2)c2cn[nH]c2c1 | 6.1 |  | 
5 | COc1ccc2[nH]ncc2c1-c1cn(Cc2cn3cc(CNCC4CCC4)ccc3n2)nn1 | 6.1 |  | 
6 | O=C(NCc1cn2cc(CNCC34CC(F)(C3)C4)ccc2n1)c1cc(=O)n2ccccc2n1 |  | 6.1 | 
7 | CC1=NN(c2ccc(C)c(C)c2)C(=O)/C1=N\Nc1cccc(-c2cccc(C(=O)O)c2)c1 |  |  | IC50 [4]: 15300 nM
8 | Nc1ncnc2c1c(Br)cn2[C@@H]1C[C@H](c2ccc3cc(CN4CCC5(CCC5)C4)[nH]c3c2)[C@@H](O)[C@H]1O [(1R,2S,3R,5R)-3-{4-amino-5-bromo-7H-pyrrolo[2,3-d]pyrimidin-7-yl}-5-[2-({6-azaspiro[3.4]octan-] | 6.1 |  | 
9 | Nc1ncnc2c1c(Cl)cn2[C@@H]1C[C@H](c2ccc3cc(CNCC45CC(F)(C4)C5)[nH]c3c2)[C@@H](O)[C@H]1O [(1R,2S,3R,5R)-3-{4-amino-5-chloro-7H-pyrrolo[2,3-d]pyrimidin-7-yl}-5-(2-{[({3-fluorobicyclo[1.1.1]pentan-1-] | 6.1 |  | 
10 | Nc1ncnc2c1ccn2[C@@H]1C[C@H](c2ccc3cc(CN4CCC5(CCC5)C4)[nH]c3c2)[C@@H](O)[C@H]1O [(1R,2S,3R,5R)-3-{4-amino-7H-pyrrolo[2,3-d]pyrimidin-7-yl}-5-[2-({6-azaspiro[3.4]octan-] | 6.2 |  | 
11 | COc1cc(-c2cn(Cc3cn4cc(CNCC56CC(F)(C5)C6)ccc4n3)nn2)c2cncn2c1 [({3-fluorobicyclo[1.1.1]pentan-1-yl}methyl)({2-[(4-{6-methoxyimidazo[1,5-a]pyridin-8-yl}-1H-1,2,3-triazol-1-yl)methyl]imidazo [1,2-a]pyridin-6-yl}methyl)amine] |  | 6.1 | 
12 | COc1cc(-c2cn(Cc3cn4cc(CNCC56CC(C5)C6)ccc4n3)nn2)c2cncn2c1 [({bicyclo[1.1.1]pentan-1-yl}methyl)({2-[(4-{6-methoxyimidazo[1,5-a]pyridin-8-yl}-1H-1,2,3-triazol-1-yl)methyl]imidazo [1,2-a]pyridin-6-yl}methyl)amine] |  | 6.1 | 
13 | COc1cc(-c2cn(Cc3cn4cc(CNCC5CCC5)ccc4n3)nn2)c2cncn2c1 [US20230391770, Example 22] |  | 6.1 | 
